Measurements as given in US11415579B2, “Assay for measuring a rate of reaction between a target and a ligand candidate” (Imperial College Innovations Ltd., priority 2016, dated 2022).

Key:
[1] = Kinetic thiol consumption assay with model thiol glutathione; assay type: physicochemical; set-up: Rate constant with glutathione (k(GSH)): unit not given here; conditions: for Rate constant with Glutathione: Protein: Glutathione, cysteine position NA, in h-1; for Rate constant with glutathione (k(GSH)): 500 μM ligand, 5 μM thiol, phosphate buffer pH 8
Procedure: (§1) A library of 120 acrylamides was screened against a) human cyclin-dependent kinase 2 (Cdk2, which contains one surface exposed cysteine residue—C177), prepared by cloning cDNA into the pRSETA bacterial expression vector to generate a poly-histidine tagged Cdk2 fusion that was purified from E. coli using standard techniques, and b) a model thiol (specific details are given below). The structures of these 120 acrylamides are set out in Table 1, above.
(§2) To wells containing 150 μL thiol (Cdk2 or model thiol) (5 μM) in degassed phosphate buffer (pH 8) was added immobilized TCEP beads (2% v/v).
(§3) After incubation of the fluorescence plates for 1 hour at room temperature, fluorescence measurements (excitation/emission of 380/470 nm) were taken on a PerkinElmer EnVision multilabel plate reader and processed with EnVision Workstation version 1.12.
(§4) Fluorescence measurements were normalized against a DMSO/thiol only control and plotted against time.
(§5) Rate constants were calculated using GraphPad software Prism version 6 by fitting a first order exponential decay to the data. The rate constant for each acrylamide with Cdk2 was divided by the rate constant for that fragment with the model thiol to provide the rate enhancement for each ligand candidate.
The model thiol in Example 1 is glutathione (GSH). Hits were defined as fragments where kCdk2/kGSH>5.8 (empirically determined as 3 standard deviations over the mean).

[2] = biological target: T1, human cyclin-dependent kinase 2 (Cdk2) (Homo sapiens, UniProt P24941); assay: Kinetic thiol consumption assay with wild type Cdk2 (C177); assay type: binding; set-up: key to Rate enhancement, Cdk2 WT: k(Cdk2) divided by k(model thiol); Rate constant with Cdk2 (k(Cdk2)): unit not given here; conditions: for Rate enhancement, Cdk2 WT: no additional mutations; for Rate constant with Cdk2 WT: Protein: Cdk2, cysteine position WT, in h^-1; for Rate constant with Cdk2 (k(Cdk2)): 500 μM ligand, 5 μM thiol, phosphate buffer pH 8; for k(Cdk2)/k(GSH) rate enhancement: model thiol glutathione
T1 construct: poly-histidine; made in house; host or cells: E. coli
Procedure: as §1, §2, §3, §4, §5

[3] = biological target: T2, Cdk2(C177A, F80C) (Homo sapiens, UniProt P24941, C177A/F80C); assay: Kinetic thiol consumption assay with Cdk2 mutant F80C, incl. kobs versus concentration (Kd, k2); assay type: binding; set-up: key to Rate enhancement, Cdk2 F80C: Cdk2 rate constant divided by model-thiol rate constant; conditions: additional mutation C177A; for Rate constant with Cdk2 F80C: Protein: Cdk2, cysteine position F80C, in h^-1
T2 construct: poly-histidine; made in house; host or cells: E. coli
Procedure: Therefore the assay can be used to calculate both k2 and Kd by experimentally determining kobs at a suitable range of ligand candidate concentrations. Typically Kd and k2 would then be determined by fitting a hyperbolic curve to a plot of kobs against ligand candidate concentration (FIG. 9).
as §2, §3, §4, §5
(§6) A further set of set of additional Cdk2 mutants were screened, all containing the C177A mutation and therefore with only one cysteine on the surface: • F80C (without the K278C mutation) • H71C • S276C • N272 • T182C • R122C • S181C
(§7) Mutations were introduced by site-directed mutagenesis and the resulting cDNA was cloned into the pRSETA bacterial expression vector to generate a poly-histidine tagged Cdk2 fusion that was purified from E. coli using standard techniques.
Rate constants were calculated as described in the methodology section of Examples 1 and 2.

[4] = biological target: T3, Cdk2(H71C) (C177A) (Homo sapiens, UniProt P24941, C177A/H71C); assay: Kinetic thiol consumption assay with Cdk2 mutant H71C; assay type: binding; set-up: key to Rate enhancement, Cdk2 H71C: rate constant with Cdk2 ÷ rate constant with model thiol (fold); conditions: additional mutation C177A; for Rate constant with Cdk2 H71C: Protein: Cdk2, cysteine position H71C, in h^-1
T3 construct: poly-histidine; made in house; host or cells: E. coli
Procedure: as §2, §3, §4, §5, §6, §7

[5] = biological target: T4, Cdk2(S276C) (C177A) (Homo sapiens, UniProt P24941, C177A/S276C); assay: Kinetic thiol consumption assay with Cdk2 mutant S276C; assay type: binding; set-up: key to Rate enhancement, Cdk2 S276C: rate constant with Cdk2 ÷ rate constant with model thiol (fold); conditions: additional mutation C177A; for Rate constant with Cdk2 S276C: Protein: Cdk2, cysteine position S276C, in h^-1
T4 construct: poly-histidine; made in house; host or cells: E. coli
Procedure: as §2, §3, §4, §5, §6, §7

[6] = biological target: T5, Cdk2(N272C) (C177A) (Homo sapiens, UniProt P24941, C177A/N272C); assay: Kinetic thiol consumption assay with Cdk2 mutant N272C; assay type: binding; set-up: key to Rate enhancement, Cdk2 N272: rate constant with Cdk2 ÷ rate constant with model thiol (fold); conditions: for Rate enhancement, Cdk2 N272: Cdk2 N272, additional mutation C177A; for Rate constant with Cdk2 N272C: Protein: Cdk2, cysteine position N272C, additional mutation C177A, in h^-1
T5 construct: poly-histidine; made in house; host or cells: E. coli
Procedure: as §2, §3, §4, §5, §6, §7

[7] = biological target: T6, Cdk2(T182C) (C177A) (Homo sapiens, UniProt P24941, C177A/T182C); assay: Kinetic thiol consumption assay with Cdk2 mutant T182C; assay type: binding; set-up: key to Rate enhancement, Cdk2 T182C: rate constant with Cdk2 ÷ rate constant with model thiol (fold); conditions: additional mutation C177A; for Rate constant with Cdk2 T182C: Protein: Cdk2, cysteine position T182C, in h^-1
T6 construct: poly-histidine; made in house; host or cells: E. coli
Procedure: as §2, §3, §4, §5, §6, §7

[8] = biological target: T7, Cdk2(R122C) (C177A) (Homo sapiens, UniProt P24941, C177A/R122C); assay: Kinetic thiol consumption assay with Cdk2 mutant R122C; assay type: binding; set-up: key to Rate enhancement, Cdk2 R122C: rate constant with Cdk2 ÷ rate constant with model thiol (fold); conditions: additional mutation C177A; for Rate constant with Cdk2 R122C: Protein: Cdk2, cysteine position R122C, in h-1
T7 construct: poly-histidine; made in house; host or cells: E. coli
Procedure: as §2, §3, §4, §5, §6, §7

[9] = biological target: T8, Cdk2(S181C) (C177A) (Homo sapiens, UniProt P24941, C177A/S181C); assay: Kinetic thiol consumption assay with Cdk2 mutant S181C; assay type: binding; set-up: key to Rate enhancement, Cdk2 S181C: rate constant with Cdk2 ÷ rate constant with model thiol (fold); conditions: additional mutation C177A; for Rate constant with Cdk2 S181C: Protein: Cdk2, cysteine position S181C, in h^-1
T8 construct: poly-histidine; made in house; host or cells: E. coli
Procedure: as §2, §3, §4, §5, §6, §7

| SMILES | Rate enhancement, Cdk2 WT [2] | Rate constant with Cdk2 WT [2] | Rate enhancement, Cdk2 F80C [3] | Rate constant with Cdk2 F80C [3] | Rate enhancement, Cdk2 H71C [4] | Rate constant with Cdk2 H71C [4] | Rate enhancement, Cdk2 S276C [5] | Rate constant with Cdk2 S276C [5] | Rate enhancement, Cdk2 N272 [6] | Rate constant with Cdk2 N272C [6] | Rate enhancement, Cdk2 T182C [7] | Rate constant with Cdk2 T182C [7] | Rate enhancement, Cdk2 R122C [8] | Rate constant with Cdk2 R122C [8] | Rate enhancement, Cdk2 S181C [9] | Rate constant with Cdk2 S181C [9] | Rate constant with Cdk2 (k(Cdk2)) [2] | k(Cdk2)/k(GSH) rate enhancement [2] | Rate constant with Glutathione [1] | Rate constant with glutathione (k(GSH)) [1] |
| --- | --- | --- | --- | --- | --- | --- | --- | --- | --- | --- | --- | --- | --- | --- | --- | --- | --- | --- | --- | --- |
| C=CC(=O)N1CCN(Cc2noc(C3CC3)n2)CC1 [CA-091] | 0.2968 | 0.002299 | 0.1028 | 0.0007964 | 0.1944 | 0.001506 | 0.9396 | 0.007277 | 0.3769 | 0.002919 | 2.003 | 0.01551 | 0.6918 | 0.005358 | 1.139 | 0.008821 | 0.0023 | 0.4376 | 0.007745 | 0.00525 |
| C=CC(=O)N(Cc1ccco1)C12CC3CC(CC(C3)C1)C2 [CA-157] | 1.257 | 0.01041 | 0.165 | 0.001367 | 1.058 | 0.008761 | 68.22 | 0.5651 | 87.21 | 0.7224 | 10.22 | 0.08469 | 0.376 | 0.003114 | 0.9237 | 0.007651 | 0.00288 | 0.7234 | 0.008283 | 0.00399 |
| C=CC(=O)N1CC(OCCN(CC)CC)C1 [CA-145] | 0.6483 | 0.002046 | 0 |  | 0 |  | 0 |  | 1.155 | 0.003646 | 1.904 | 0.00601 | 0.846 | 0.00267 | 2.572 | 0.008117 | 0.00205 | 0.6425 | 0.003156 | 0.00318 |

More lines, main results first:

| Rate enhancement, Cdk2 WT [2] | Rate constant with Cdk2 WT [2] | Rate enhancement, Cdk2 F80C [3] | Rate constant with Cdk2 F80C [3] | Rate enhancement, Cdk2 H71C [4] | Rate constant with Cdk2 H71C [4] | Rate enhancement, Cdk2 S276C [5] | Rate constant with Cdk2 S276C [5] | Rate enhancement, Cdk2 N272 [6] | Rate constant with Cdk2 N272C [6] | Rate enhancement, Cdk2 T182C [7] | Rate constant with Cdk2 T182C [7] | Rate enhancement, Cdk2 R122C [8] | Rate constant with Cdk2 R122C [8] | Rate enhancement, Cdk2 S181C [9] | Rate constant with Cdk2 S181C [9] | Rate constant with Cdk2 (k(Cdk2)) [2] | k(Cdk2)/k(GSH) rate enhancement [2] | SMILES | Rate constant with Glutathione [1] | Rate constant with glutathione (k(GSH)) [1] |
| --- | --- | --- | --- | --- | --- | --- | --- | --- | --- | --- | --- | --- | --- | --- | --- | --- | --- | --- | --- | --- |
| 7.599 | 0.01776 | 4.621 | 0.0108 | 0.9042 | 0.002113 | 7.411 | 0.01732 | 3.276 | 0.007657 | 8.314 | 0.01943 | 0.7099 | 0.001659 | 9.936 | 0.02322 |  |  | C=CC(=O)N(C1CC1)C1CCCCC1C1CCCCC1 (stereo not shown) [CA-081/240] | 0.002337 |  |
| 1.059 | 0.00896 | 0.4785 | 0.004048 | 35.53 | 0.3006 | 0.7322 | 0.006194 | 0.3045 | 0.002576 | 6.465 | 0.05469 | 0.319 | 0.002699 | 0.6457 | 0.005463 | 0.00508 | 0.9957 | C=CC(=O)N1CCCC1CC1CC2CCC1C2 (stereo not shown) [CA-087] | 0.00846 | 0.0051 |
